Test results as given in PubChem BioAssay AID1963973 (Molecular Pharmacology Branch, DTP, NCI, 2024).
Blank lines part the entries; values can stand above or below the compound they belong to.

System: 883617-216-R-J1-PDC tumor spheroids, viability
Test: Anticancer human tumor 883617-216-R-J1-PDC patient-derived bladder carcinoma cell line growth inhibition [PI3K]
Conditions: spheroids with HUVEC and MSC; for IC50: curve of first compound; for viability, T/C: stronger effect = lower value
In short: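 We assembled tumor spheroids that included a stromal compartment of HUVEC and MSCs, then exposed them to targeted agents alone and together with PI3K pathway inhibitors. Concentration series descended by half-log from clinically achievable Cmax levels. Viability served as the endpoint.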

[1] = second compound 0.0316 µM, first compound 0.0316 µM
[2] = second compound 0.0316 µM, first compound 0.1 µM
[3] = second compound 0.1 µM, first compound 0.0316 µM
[4] = second compound 0.1 µM, first compound 0.1 µM
[5] = second compound 0.316 µM, first compound 0.0316 µM
[6] = second compound 0.316 µM, first compound 0.1 µM
[7] = second compound 1 µM, first compound 0.0316 µM
[8] = second compound 1 µM, first compound 0.1 µM
[9] = second compound 3.16 µM, first compound 0.0316 µM
[10] = second compound 3.16 µM, first compound 0.1 µM
[11] = second compound 10 µM, first compound 0.0316 µM
[12] = second compound 10 µM, first compound 0.1 µM
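Also: spheroids exposed to agents for 7 days before the viability read.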

IC50 (second compound 0.0316 µM): > 10000 nM | IC50 (second compound 0.1 µM): > 10000 nM | IC50 (second compound 0.316 µM): > 10000 nM | IC50 (second compound 1 µM): > 10000 nM | IC50 (second compound 3.16 µM): > 10000 nM | IC50 (second compound 10 µM): < 31.6 nM
Structure (SMILES): C[C@@H](NC(=O)c1ncnc(N)c1Cl)c1ncc(C(=O)Nc2cc(C(F)(F)F)c(Cl)cn2)s1 + CC(Nc1ncnc2nc[nH]c12)c1cc2cccc(Cl)c2c(=O)n1-c1ccccc1
viability, T/C [1]: 88.8% | viability, T/C [2]: 87.1% | viability, T/C (second compound 0.0316 µM, first compound 0.316 µM): 81.4% | viability, T/C (second compound 0.0316 µM, first compound 1 µM): 99.8% | viability, T/C (second compound 0.0316 µM, first compound 3.16 µM): 78.1% | viability, T/C (second compound 0.0316 µM, first compound 10 µM): 64.8% | viability, T/C [3]: 90% | viability, T/C [4]: 85.6% | viability, T/C (second compound 0.1 µM, first compound 0.316 µM): 91.3% | viability, T/C (second compound 0.1 µM, first compound 1 µM): 91.8% | viability, T/C (second compound 0.1 µM, first compound 3.16 µM): 81.2% | viability, T/C (second compound 0.1 µM, first compound 10 µM): 58.2% | viability, T/C [5]: 85.5% | viability, T/C [6]: 96.2% | viability, T/C (second compound 0.316 µM, first compound 0.316 µM): 90.3% | viability, T/C (second compound 0.316 µM, first compound 1 µM): 74% | viability, T/C (second compound 0.316 µM, first compound 3.16 µM): 78.4% | viability, T/C (second compound 0.316 µM, first compound 10 µM): 76.2% | viability, T/C [7]: 80.3% | viability, T/C [8]: 82.1% | viability, T/C (second compound 1 µM, first compound 0.316 µM): 90.4% | viability, T/C (second compound 1 µM, first compound 1 µM): 74.4% | viability, T/C (second compound 1 µM, first compound 3.16 µM): 75.8% | viability, T/C (second compound 1 µM, first compound 10 µM): 50.1% | viability, T/C [9]: 58.3% | viability, T/C [10]: 56.5% | viability, T/C (second compound 3.16 µM, first compound 0.316 µM): 60% | viability, T/C (second compound 3.16 µM, first compound 1 µM): 58.2% | viability, T/C (second compound 3.16 µM, first compound 3.16 µM): 65.2% | viability, T/C (second compound 3.16 µM, first compound 10 µM): 51.7% | viability, T/C [11]: 36.9% | viability, T/C [12]: 43.9% | viability, T/C (second compound 10 µM, first compound 0.316 µM): 45.8% | viability, T/C (second compound 10 µM, first compound 1 µM): 44.6% | viability, T/C (second compound 10 µM, first compound 3.16 µM): 55.7% | viability, T/C (second compound 10 µM, first compound 10 µM): 40.4%

IC50 (second compound 0.0316 µM): > 100 nM | IC50 (second compound 0.1 µM): > 100 nM | IC50 (second compound 0.316 µM): > 100 nM | IC50 (second compound 1 µM): > 100 nM | IC50 (second compound 3.16 µM): 72.3 nM | IC50 (second compound 10 µM): 0.867 nM
Structure (SMILES): Cn1ncnc1[C@H]1c2n[nH]c(=O)c3cc(F)cc(c23)N[C@@H]1c1ccc(F)cc1 + CC(Nc1ncnc2nc[nH]c12)c1cc2cccc(Cl)c2c(=O)n1-c1ccccc1
viability, T/C (second compound 0.0316 µM, first compound 0.000316 µM): 99% | viability, T/C (second compound 0.0316 µM, first compound 0.001 µM): 106% | viability, T/C (second compound 0.0316 µM, first compound 0.00316 µM): 72.5% | viability, T/C (second compound 0.0316 µM, first compound 0.01 µM): 86.4% | viability, T/C [1]: 76.8% | viability, T/C [2]: 51% | viability, T/C (second compound 0.1 µM, first compound 0.000316 µM): 108% | viability, T/C (second compound 0.1 µM, first compound 0.001 µM): 101% | viability, T/C (second compound 0.1 µM, first compound 0.00316 µM): 72.6% | viability, T/C (second compound 0.1 µM, first compound 0.01 µM): 66.1% | viability, T/C [3]: 74.9% | viability, T/C [4]: 67% | viability, T/C (second compound 0.316 µM, first compound 0.000316 µM): 82.4% | viability, T/C (second compound 0.316 µM, first compound 0.001 µM): 82.6% | viability, T/C (second compound 0.316 µM, first compound 0.00316 µM): 85.1% | viability, T/C (second compound 0.316 µM, first compound 0.01 µM): 70.8% | viability, T/C [5]: 54.5% | viability, T/C [6]: 65.4% | viability, T/C (second compound 1 µM, first compound 0.000316 µM): 84.6% | viability, T/C (second compound 1 µM, first compound 0.001 µM): 80.1% | viability, T/C (second compound 1 µM, first compound 0.00316 µM): 66.1% | viability, T/C (second compound 1 µM, first compound 0.01 µM): 62% | viability, T/C [7]: 62.5% | viability, T/C [8]: 57.5% | viability, T/C (second compound 3.16 µM, first compound 0.000316 µM): 81.1% | viability, T/C (second compound 3.16 µM, first compound 0.001 µM): 71% | viability, T/C (second compound 3.16 µM, first compound 0.00316 µM): 60.1% | viability, T/C (second compound 3.16 µM, first compound 0.01 µM): 58.4% | viability, T/C [9]: 56.3% | viability, T/C [10]: 46.6% | viability, T/C (second compound 10 µM, first compound 0.000316 µM): 61.6% | viability, T/C (second compound 10 µM, first compound 0.001 µM): 41.7% | viability, T/C (second compound 10 µM, first compound 0.00316 µM): 45% | viability, T/C (second compound 10 µM, first compound 0.01 µM): 40.5% | viability, T/C [11]: 35.5% | viability, T/C [12]: 29.4%
